Holding throughout (experiment): Sensitivity to PI3K inhibitor and Taxol in 3-D culture (Carbylan-GSX hydrogels)
Format in all cases: cell-based, Human

Assay [1] has as its system HCA7. As to conditions: 10 mM LY-294002 or 1 mg/ml paclitaxel, two weeks. On the procedure:
(§1) Human breast cancer cell lines (MDA-MB-231 and MDA-MB-468), colon adenocarcinoma cell lines (Caco2, HCT116, and HCA7), and ovarian cancer cell (SK-OV-3) were obtained from American Type Culture Collections (ATCC) and maintained in RPMI 1640 medium (GIBCO) supplemented with 10 mM HEPES, 10% fetal bovine serum (Hyclone), 0.4 mM sodium pyruvate, and […], 100 U/ml penicillin, and 100 ug/ml streptomycin.
(§2) When reaching 80-90% confluence, the above cell lines were trypsinized with 0.25% trypsin containing 1 mM EDTA and suspended in 1.25% (w/v) Carbylan™-S and 3% (w/v) gelatin-DTPH in a 50:50 (v/v) ratio in serum-free RPMI medium (pH 7.4), and then 4% (w/v) solution of PEGDA in DPBS buffer was added to the Carbylan™-S/gelatin-DTPH solution at a ratio of 4:1 (Carbylan™-S :PEGDA, v:v) and mixed by vortexing for 30 second. The final concentration of cells in Carbylan™-GSX solution was 2.0×10^6/ml. Aliquots ([…]) of each reaction mixture loaded with cells were transferred by pipette into 24-well cell culture inserts (Coming incorporated, Coming, N.Y.) with 6.5 mm in diameter and […]. The cell loaded inserts were incubated in incubator (37° C. and 5% CO2) for two hours and then 2 ml of RPMI 1640 medium containing 10% FBS was added into each into each insert. The media were changed every two days. Two weeks after the initial culture, the media were removed from the inserts and changed with 10 mM of LY-294002 (Sigma) and 1 mg/ml of paclitaxel (Sigma) in RPMI 1640 medium containing 0.5% FBS. There were total eight inserts for each reagent each cell line. The media were also changed every two days. Two weeks after the media were changed to LY-294002 and paclitaxel containing media, the media were removed from the inserts and changed with 1.5 ml RPMI 1640 media containing 5% FBS and 15% (v/v) CellTiter 96 aqueous one solution cell proliferation assay (Promega, Madison, Wis.) and incubated in incubator (37° C. and 5% CO2) for three hours and then the reaction solution was transferred into 96-well plate ([…]) and the absorbance was read at 550 nm with an OPTI Max microplate reader (Molecular Devices). The inserts were rinsed twice with DPBS buffer and stained with FDA and PI at RT for 5 min and observed using a confocal laser scanning microscope (LSM 510, Carl Zeiss Microimaging, Inc., Thornwood, N.Y.).

The subject of assay [2] is SK-OV-3. On the procedure:
as §1, §2

Assay [3] concerns CaCo-2. On the procedure: as §1, §2
The test system of assay [4] is MDA-MB-231. The following applies: MDA-MB-231 in Carbylan-GSX; 10 mM LY-294002 or 1 mg/ml paclitaxel; two weeks. On the procedure:
as §1, §2

Assay [5] has as its system HCT116. The following applies: 10 mM LY-294002 or 1 mg/ml paclitaxel, two weeks. On the procedure: as §1, §2
The test system of assay [6] is MDA-MB-468. As to conditions: MDA-MB-468 in Carbylan-GSX; 10 mM LY-294002 or 1 mg/ml paclitaxel; two weeks. On the procedure: as §1, §2

In the case of `CC(=O)O[C@H]1C(=O)[C@@]2(C)[C@H]([C@H](OC(=O)c3ccccc3)[C@]3(O)C[C@H](OC(=O)[C@H](O)[C@@H](NC(=O)c4ccccc4)c4ccccc4)C(C)=C1C3(C)C)[C@]1(OC(C)=O)CO[C@@H]1C[C@@H]2O` [paclitaxel], the “proliferation (CellTiter 96, absorbance at 550 nm)” value in assay [1] is “inhibited”; in assay [2] (SK-OV-3 in Carbylan-GSX, 10 mM LY-294002 or 1 mg/ml paclitaxel, two weeks), “Neither LY294002 and paclitaxel showed any inhibition effects”; in assay [3] (CaCo-2 in Carbylan-GSX, 10 mM LY-294002 or 1 mg/ml paclitaxel, two weeks) it was “inhibited”; in assay [4] it was “Neither LY294002 and paclitaxel showed any inhibition effects”; in assay [5], “inhibited”; in assay [6], “inhibited”. The “3-D morphology (FDA/PI staining)” value in assay [2] (SK-OV-3, compared to cells cultured in normal medium) is on record as “no obvious difference”. In addition, the “cell density in sECM hydrogels (FDA/PI staining)” value in assay [3] (Caco-2, compared to cells cultured in normal medium) is listed as “decreased”.

The values are drawn from patent US7981871B2, “Modified macromolescules and associated methods of synthesis and use” (University of Utah Research Foundation, priority 2003, dated 2011).
